For test [1], the target named is Integrin alpha-IIb/beta-3 (Homo sapiens, UniProt P05106+P08514). Kind of test: Inhibition of fibrinogen binding to platelet glycoprotein alpha IIb beta-3 integrin in ELISA. (In an ELISA, binding on a coated surface is turned into a signal by an enzyme label.)
The species entered for another test is Cavia porcellus. As to the kind of experiment: Compound was tested for inhibition of ADP induced platelet aggregation in guinea pig. The class given is functional.
A further test is filed under the species Homo sapiens. Kind of test: Compound was tested for inhibition of ADP induced platelet aggregation in human platelet-rich plasma. The class given is functional.

The structures appear in SMILES notation. pIC50: −log10 of the molar value.

Sequence of Integrin alpha-IIb/beta-3 (P05106 27-788 limits assumed): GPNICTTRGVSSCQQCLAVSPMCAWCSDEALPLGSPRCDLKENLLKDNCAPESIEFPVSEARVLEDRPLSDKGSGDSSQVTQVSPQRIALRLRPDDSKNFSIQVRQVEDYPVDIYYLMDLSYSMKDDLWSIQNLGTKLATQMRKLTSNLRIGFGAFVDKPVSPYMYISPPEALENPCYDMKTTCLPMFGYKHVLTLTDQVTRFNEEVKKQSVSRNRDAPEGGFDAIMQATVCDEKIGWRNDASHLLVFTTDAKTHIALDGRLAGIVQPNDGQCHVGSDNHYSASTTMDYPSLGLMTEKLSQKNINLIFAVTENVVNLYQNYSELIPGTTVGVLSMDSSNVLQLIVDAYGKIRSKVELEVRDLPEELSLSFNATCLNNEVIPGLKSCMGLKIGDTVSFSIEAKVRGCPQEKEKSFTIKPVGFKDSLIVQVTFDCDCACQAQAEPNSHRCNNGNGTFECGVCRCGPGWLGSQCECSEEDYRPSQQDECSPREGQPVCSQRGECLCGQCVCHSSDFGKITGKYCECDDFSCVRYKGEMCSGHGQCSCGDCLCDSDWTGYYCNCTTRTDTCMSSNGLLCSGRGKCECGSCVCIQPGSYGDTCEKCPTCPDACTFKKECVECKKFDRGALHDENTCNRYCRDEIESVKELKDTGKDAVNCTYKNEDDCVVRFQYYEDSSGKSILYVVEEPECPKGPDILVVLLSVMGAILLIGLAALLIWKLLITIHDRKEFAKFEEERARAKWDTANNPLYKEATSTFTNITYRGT
Sequence of Integrin alpha-IIb/beta-3 (P08514 32-887 limits assumed): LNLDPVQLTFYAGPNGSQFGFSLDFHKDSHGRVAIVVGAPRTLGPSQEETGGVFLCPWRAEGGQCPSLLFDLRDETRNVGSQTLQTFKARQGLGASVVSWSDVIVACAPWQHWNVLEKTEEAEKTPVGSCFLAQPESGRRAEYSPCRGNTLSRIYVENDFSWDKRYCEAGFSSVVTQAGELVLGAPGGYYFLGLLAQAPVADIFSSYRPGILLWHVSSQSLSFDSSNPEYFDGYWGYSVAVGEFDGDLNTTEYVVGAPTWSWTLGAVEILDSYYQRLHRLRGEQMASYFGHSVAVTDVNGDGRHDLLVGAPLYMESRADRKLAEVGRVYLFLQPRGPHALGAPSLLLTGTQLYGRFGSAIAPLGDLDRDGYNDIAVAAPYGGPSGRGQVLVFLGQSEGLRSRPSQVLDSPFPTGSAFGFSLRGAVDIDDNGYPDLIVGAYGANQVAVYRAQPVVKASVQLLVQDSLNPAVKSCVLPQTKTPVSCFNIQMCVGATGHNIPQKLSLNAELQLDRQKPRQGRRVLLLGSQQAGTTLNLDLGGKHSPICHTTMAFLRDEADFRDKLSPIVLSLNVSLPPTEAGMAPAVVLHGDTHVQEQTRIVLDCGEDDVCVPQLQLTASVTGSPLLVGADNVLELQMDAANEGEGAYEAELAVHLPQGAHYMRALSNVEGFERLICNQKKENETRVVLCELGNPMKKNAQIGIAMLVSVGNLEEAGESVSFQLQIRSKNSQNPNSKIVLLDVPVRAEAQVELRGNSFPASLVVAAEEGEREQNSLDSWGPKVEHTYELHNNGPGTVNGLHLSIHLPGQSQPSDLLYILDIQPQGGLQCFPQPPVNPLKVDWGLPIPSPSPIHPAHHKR
Sequence of Integrin alpha-IIb/beta-3 (P08514 891-1039 limits assumed): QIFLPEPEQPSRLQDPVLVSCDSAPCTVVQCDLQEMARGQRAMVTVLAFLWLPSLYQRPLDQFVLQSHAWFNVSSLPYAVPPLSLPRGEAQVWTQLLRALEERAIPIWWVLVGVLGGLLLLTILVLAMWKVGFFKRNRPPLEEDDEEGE

A word on the pIC50: it is −log10 of the IC50, conventionally taken in molar units. Lower therefore signals a large IC50. In test [1], `N=C(N)c1ccc(N2CCN(c3ccc(CC(=O)O)cc3)CC2)cc1` gave a negative-log IC50 (pIC50) of 6.00.

`N=C(N)c1ccc(N2CCN(Cc3cccc(OCC(=O)O)c3)CC2)cc1` had a pIC50 in test [1] of 5.40. For the compound `CN(CC(=O)c1ccc(OCC(=O)O)c(OCC(=O)O)c1)C(=O)c1ccc(C(=N)N)cc1`, the values for the pIC50 (in the test filed under Cavia porcellus; in test [1]) were 6.60 and 9.00, respectively. `N=C(N)c1ccc(N2CCN(C3CCN(CC(=O)O)CC3)CC2)cc1`: the pIC50 in the test filed under Cavia porcellus was 6.60; in test [1] it was 8.10; in the test filed under Homo sapiens, 6.20. The compound `N=C(N)c1ccc(N2CCN(c3ccc(OCCCC(=O)O)cc3)CC2)cc1` showed a pIC50 in test [1] below 5.00. Same read-out and setting: to `N=C(N)c1ccc(CN2CCN(c3ccc(CC(=O)O)cc3)CC2)cc1` belongs 5.60; to `N=C(N)c1ccc(N2CCN(c3ccc(CCC(=O)O)cc3)CC2)cc1`, 7.60. As to `N=C(N)c1ccc(N2CCN(c3ccc(OCC(=O)O)cc3)CC2)cc1`, the pIC50 in the test filed under Cavia porcellus is 5.50; in test [1], 8.70; in the test filed under Homo sapiens, 6.00.

In test [1], `N=C(N)c1ccc(N2CCN(c3cccc(OCC(=O)O)c3)CC2)cc1` had a pIC50 of 5.70. For `CC(C)(Oc1ccc(N2CCN(c3ccc(C(=N)N)cc3)CC2)cc1)C(=O)O`, the pIC50 in test [1] is 6.00.

Consider `N=C(N)c1ccc(N2CCN(Cc3ccc(CC(=O)O)cc3)CC2)cc1`, for which, in test [1], the pIC50 was 6.70. The same measure, in the same setting: to `N=C(N)c1ccc(CN2CCN(c3cccc(OCC(=O)O)c3)CC2)cc1` belongs 4.80; to `N=C(N)c1ccc(N2CCN(c3cccc(CC(=O)O)c3)CC2)cc1`, 5.80.

As for `N=C(N)c1ccc(CN2CCN(c3cccc(CC(=O)O)c3)CC2)cc1`, in test [1], the pIC50 was 4.40.

With `N=C(N)c1ccc(N2CCN(Cc3cccc(CC(=O)O)c3)CC2)cc1`, the pIC50 in test [1] was 5.90.

For the origin of these results see ChEMBL document CHEMBL1130843, “Design and synthesis of an orally active GPIIb/IIIa antagonist based on a phenylpiperazine scaffold” (Bioorg Med Chem Lett, 1998).
